Inhibition data for 21 molecules are collected here from patent US8552002B2 (Novartis AG, priority 2004, dated 2013).

Structures are written as SMILES. Like-named read-outs stand apart in the source and are kept apart here.

Assay type in all cases: biochemical
One test concerns the target T1, Tek (Homo sapiens, UniProt Q02763).
T1 construct: amino acids 773-1124 of the cytoplasmic kinase domain of human Tek, N-terminally fused to GST; made in house; host or cells: Sf9 insect cells (baculovirus)
Briefly: Recombinant GST-Tek (Tie-2) tyrosine kinase assay (33P into poly(Glu,Tyr)). Conditions: Examples 1 to 169. A digest of the protocol:
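GST-fused human Tek kinase domain (aa 773-1124), baculovirus-expressed, 150 ng per reaction; 10 μg/mL poly(Glu,Tyr) 4:1, 4.0 μM [γ-33P]ATP, 3 mM MnCl2/3 mM MgCl2, pH 7.5, 30 min at ambient temperature. 33P uptake read on PVDF filters; IC50 by linear regression from four concentrations in duplicate.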

Another test has as its target T2, KDR (Homo sapiens, UniProt P35968).
T2 construct: expressed in transfected cells; host or cells: CHO cells
Nature of the test: Inhibitory activity against KDR (VEGF-R2), in vitro data of Examples 170 and 207. Conditions: 10 μM, read-out: KDR inhibition at 10 μM. A digest of the protocol:
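KDR tyrosine phosphorylation detected by luminescence after overnight 4° C capture of 20 μg lysate protein with PY20:AP antibody. Lysates came from cells given compound for 2 h at 37° C, then final 20 ng/ml VEGF for 5 min; compound-free medium as control.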

A further test deals with T3, FGFR3 (K650E) (Homo sapiens, UniProt P22607, K650E).
T3 construct: amino acids 411-806 of the cytoplasmic domain of human FGFR-3, N-terminally fused to GST; made in house; host or cells: Sf9 insect cells (baculovirus)
T3 sequence (P22607 411-806 K650E): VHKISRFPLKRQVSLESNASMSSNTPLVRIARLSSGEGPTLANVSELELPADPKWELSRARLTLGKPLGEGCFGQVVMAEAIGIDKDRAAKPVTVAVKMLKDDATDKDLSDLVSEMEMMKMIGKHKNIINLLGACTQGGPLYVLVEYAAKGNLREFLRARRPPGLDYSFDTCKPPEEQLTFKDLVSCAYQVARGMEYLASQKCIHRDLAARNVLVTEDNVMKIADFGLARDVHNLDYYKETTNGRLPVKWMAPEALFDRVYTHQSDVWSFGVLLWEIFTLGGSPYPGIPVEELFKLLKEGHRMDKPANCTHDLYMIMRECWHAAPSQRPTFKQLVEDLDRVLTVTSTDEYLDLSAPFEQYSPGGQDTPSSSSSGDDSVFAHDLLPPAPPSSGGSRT
Nature of the test: Recombinant GST-FGFR-3-K650E tyrosine kinase assay (33P into poly(Glu,Tyr)). The conditions noted are these: 10 μM.

The target of a further test is c-Abl (Homo sapiens, UniProt P00519). Nature of the test: Inhibitory activity against c-Abl (Example 207). Conditions: Examples 171 to 206.
c-Abl, sequence (P00519 whole entry): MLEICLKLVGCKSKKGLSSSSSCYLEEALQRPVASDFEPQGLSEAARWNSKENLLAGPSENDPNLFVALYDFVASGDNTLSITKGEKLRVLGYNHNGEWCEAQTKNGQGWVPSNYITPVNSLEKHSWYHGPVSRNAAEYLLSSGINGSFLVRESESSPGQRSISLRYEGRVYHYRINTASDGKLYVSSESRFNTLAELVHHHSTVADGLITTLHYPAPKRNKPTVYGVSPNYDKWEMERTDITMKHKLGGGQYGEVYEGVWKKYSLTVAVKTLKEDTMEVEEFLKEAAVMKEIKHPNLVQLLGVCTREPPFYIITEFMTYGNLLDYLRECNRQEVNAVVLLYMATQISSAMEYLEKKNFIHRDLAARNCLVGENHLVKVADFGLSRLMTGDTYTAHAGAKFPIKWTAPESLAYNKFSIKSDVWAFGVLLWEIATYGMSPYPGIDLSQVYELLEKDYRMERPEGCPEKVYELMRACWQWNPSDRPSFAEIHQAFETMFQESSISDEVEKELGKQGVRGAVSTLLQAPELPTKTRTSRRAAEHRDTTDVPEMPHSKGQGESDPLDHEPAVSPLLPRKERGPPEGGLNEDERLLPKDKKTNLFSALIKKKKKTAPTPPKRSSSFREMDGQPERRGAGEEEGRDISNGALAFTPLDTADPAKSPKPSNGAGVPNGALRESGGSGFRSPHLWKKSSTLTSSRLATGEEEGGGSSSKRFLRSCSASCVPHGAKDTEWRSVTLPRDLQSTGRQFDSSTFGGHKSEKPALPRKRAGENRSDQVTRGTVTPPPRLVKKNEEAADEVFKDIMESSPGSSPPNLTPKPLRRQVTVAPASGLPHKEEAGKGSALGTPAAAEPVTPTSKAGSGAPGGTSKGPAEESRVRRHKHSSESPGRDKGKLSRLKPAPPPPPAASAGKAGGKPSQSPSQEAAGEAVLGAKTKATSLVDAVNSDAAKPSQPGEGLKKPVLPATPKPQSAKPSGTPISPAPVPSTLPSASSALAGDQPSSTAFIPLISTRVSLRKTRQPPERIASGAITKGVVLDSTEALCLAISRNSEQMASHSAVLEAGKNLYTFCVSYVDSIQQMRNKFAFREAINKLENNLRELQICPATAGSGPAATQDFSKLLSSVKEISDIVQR
Where [1] appears, read: Examples 1 to 169, read-out: FGFR3 (K650E) inhibition at 10 μM.
Where [2] appears, read: Examples 171 to 206, read-out: FGFR3 inhibition at 10 μM.

T1 sequence (Q02763 773-1124): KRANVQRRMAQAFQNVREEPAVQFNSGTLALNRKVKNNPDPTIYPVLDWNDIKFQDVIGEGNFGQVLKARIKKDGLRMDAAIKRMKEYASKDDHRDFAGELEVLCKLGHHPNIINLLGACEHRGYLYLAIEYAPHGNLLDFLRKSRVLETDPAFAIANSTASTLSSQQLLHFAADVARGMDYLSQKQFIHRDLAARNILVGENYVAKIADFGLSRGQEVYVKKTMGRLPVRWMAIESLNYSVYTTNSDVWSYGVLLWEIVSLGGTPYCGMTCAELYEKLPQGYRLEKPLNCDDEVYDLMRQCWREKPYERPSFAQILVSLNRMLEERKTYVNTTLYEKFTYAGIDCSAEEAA
T2 sequence (P35968 20-1356): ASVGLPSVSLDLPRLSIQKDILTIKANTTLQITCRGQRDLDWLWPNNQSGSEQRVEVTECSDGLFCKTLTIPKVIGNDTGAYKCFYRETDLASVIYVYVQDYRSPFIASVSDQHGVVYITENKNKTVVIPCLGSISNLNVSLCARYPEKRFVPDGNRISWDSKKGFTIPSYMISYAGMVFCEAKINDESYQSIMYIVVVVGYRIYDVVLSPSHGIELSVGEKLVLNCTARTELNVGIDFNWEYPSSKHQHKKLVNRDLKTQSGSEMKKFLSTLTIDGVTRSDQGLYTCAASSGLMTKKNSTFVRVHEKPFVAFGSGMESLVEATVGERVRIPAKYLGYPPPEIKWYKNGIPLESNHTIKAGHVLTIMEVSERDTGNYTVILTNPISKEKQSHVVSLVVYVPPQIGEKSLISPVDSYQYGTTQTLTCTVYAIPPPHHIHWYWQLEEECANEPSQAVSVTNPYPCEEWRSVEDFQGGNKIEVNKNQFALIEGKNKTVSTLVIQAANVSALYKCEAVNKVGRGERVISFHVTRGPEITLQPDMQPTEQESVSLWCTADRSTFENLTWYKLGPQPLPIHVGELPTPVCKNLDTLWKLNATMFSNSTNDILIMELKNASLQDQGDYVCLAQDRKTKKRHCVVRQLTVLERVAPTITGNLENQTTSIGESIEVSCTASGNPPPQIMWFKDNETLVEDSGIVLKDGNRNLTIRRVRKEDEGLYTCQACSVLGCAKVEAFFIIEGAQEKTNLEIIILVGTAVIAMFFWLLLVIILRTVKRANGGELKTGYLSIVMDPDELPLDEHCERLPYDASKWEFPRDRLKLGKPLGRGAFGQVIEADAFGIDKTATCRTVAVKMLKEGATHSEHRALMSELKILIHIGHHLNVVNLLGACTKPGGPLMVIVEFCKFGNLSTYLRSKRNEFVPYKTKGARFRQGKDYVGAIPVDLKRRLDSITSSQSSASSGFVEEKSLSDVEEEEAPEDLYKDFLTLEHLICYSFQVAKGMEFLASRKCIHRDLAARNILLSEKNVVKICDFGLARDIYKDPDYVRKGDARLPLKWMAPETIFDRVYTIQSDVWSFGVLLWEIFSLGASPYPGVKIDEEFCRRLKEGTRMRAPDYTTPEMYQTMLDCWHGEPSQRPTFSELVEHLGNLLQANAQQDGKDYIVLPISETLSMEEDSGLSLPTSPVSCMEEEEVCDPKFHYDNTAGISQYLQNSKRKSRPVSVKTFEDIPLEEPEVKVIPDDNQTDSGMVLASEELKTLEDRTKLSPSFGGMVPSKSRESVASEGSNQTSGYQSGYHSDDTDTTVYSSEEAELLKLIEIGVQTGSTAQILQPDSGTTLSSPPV

`CCN(CC)CCOc1ccc(Nc2cc(N(C)C(=O)Nc3c(Cl)c(OC)cc(OC)c3Cl)ncn2)cc1` [Example 152, 3-(2,6-Dichloro-3,5-dimethoxy-phenyl)-1-{6-[4-(2-diethylamino-ethoxy)-phenylamino]-pyrimidin-4-yl}-1-methyl-urea]: the inhibition (commonly the percentage by which the read-out fell short of the control) at 10 µM on Tek was 12 to 100%; on KDR (Examples 1 to 169), 67 to 100%; on FGFR3 (K650E) (setting [1]), 27 to 100%.
The like results for `COc1cc(OC)c(Cl)c(NC(=O)N(C)c2cc(Nc3ccc(C)nc3C)ncn2)c1Cl` [Example 153, 3-(2,6-Dichloro-3,5-dimethoxy-phenyl)-1-[6-(2,6-dimethyl-pyridin-3-ylamino)-pyrimidin-4-yl]-1-methyl-urea] were, in that order, 12 to 100%, 67 to 100% and 27 to 100%.
The like results for `COc1cc(OC)c(Cl)c(NC(=O)N(C)c2cc(Nc3ccc(C(F)(F)F)nc3)ncn2)c1Cl` [Example 154, 3-(2,6-Dichloro-3,5-dimethoxy-phenyl)-1-methyl-1-[6-(6-trifluoromethyl-pyridin-3-ylamino)-pyrimidin-4-yl]-urea] were, in that order, 12 to 100%, 67 to 100% and 27 to 100%.
On to `COc1cc(OC)c(Cl)c(NC(=O)Nc2cc(Nc3ccc(OCCN4CCCC4)cc3)ncn2)c1Cl` [Example 155, 1-(2,6-Dichloro-3,5-dimethoxy-phenyl)-3-{6-[4-(2-pyrrolidin-1-yl-ethoxy)-phenylamino]-pyrimidin-4-yl}-urea], for which the inhibition at 10 µM at Tek was in the range of 12 to 100%; at KDR (Examples 1 to 169), 67 to 100%; on FGFR3 (K650E) (setting [1]) it was 27 to 100%.
For `CCN(C(=O)Nc1c(Cl)c(OC)cc(OC)c1Cl)c1cc(Nc2ccc(OCCN3CCCC3)cc2)ncn1` [Example 156, 3-(2,6-Dichloro-3,5-dimethoxy-phenyl)-1-ethyl-1-{6-[4-(2-pyrrolidin-1-yl-ethoxy)-phenylamino]-pyrimidin-4-yl}-urea] the same measures were 12 to 100%, 67 to 100% and 27 to 100%.
For `COc1cc(OC)c(Cl)c(NC(=O)Nc2cc(Nc3cccc(CN(C)C)c3)ncn2)c1Cl` [Example 157, 1-(2,6-Dichloro-3,5-dimethoxy-phenyl)-3-[6-(3-dimethylaminomethyl-phenylamino)-pyrimidin-4-yl]-urea] the same measures were 12 to 100%, 67 to 100% and 27 to 100%.
For `COc1cc(OC)c(Cl)c(NC(=O)Nc2cc(Nc3ccc(OCCN4CCN(C)CC4)cc3)ncn2)c1Cl` [Example 158, 1-(2,6-Dichloro-3,5-dimethoxy-phenyl)-3-(6-{4-[2-(4-methyl-piperazin-1-yl)-ethoxy]-phenylamino}-pyrimidin-4-yl)-urea] the same measures were 12 to 100%, 67 to 100% and 27 to 100%.
`COc1cc(OC)c(Cl)c(NC(=O)Nc2cc(Nc3ccc(CN(C)C)c(C(F)(F)F)c3)ncn2)c1Cl` [Example 159, 1-(2,6-Dichloro-3,5-dimethoxy-phenyl)-3-[6-(4-dimethylaminomethyl-3-trifluoromethyl-phenylamino)-pyrimidin-4-yl]-urea]: the inhibition at 10 µM at Tek is 12 to 100%; on KDR (Examples 1 to 169) it was 67 to 100%; on FGFR3 (K650E) (setting [1]), 27 to 100%.
The like results for `CCN1CCN(c2ccc(Nc3cc(NC(=O)Nc4c(Cl)c(OC)cc(OC)c4Cl)ncn3)cc2)CC1` [Example 160, 1-(2,6-Dichloro-3,5-dimethoxy-phenyl)-3-{6-[4-(4-ethyl-piperazin-1-yl)-phenylamino]-pyrimidin-4-yl}-urea] were, in that order, 12 to 100%, 67 to 100% and 27 to 100%.
For `COc1cc(OC)c(Cl)c(NC(=O)N(C)c2cc(Nc3cccc(CN4CCN(C(C)C)CC4)c3)ncn2)c1Cl` [Example 161, 3-(2,6-Dichloro-3,5-dimethoxy-phenyl)-1-{6-[3-(4-isopropyl-piperazin-1-ylmethyl)-phenylamino]-pyrimidin-4-yl}-1-methyl-urea] the same measures were 12 to 100%, 67 to 100% and 27 to 100%.
For the molecule `COc1cc(OC)c(Cl)c(NC(=O)N(C)c2cc(Nc3cccc(CN(C)CCN(C)C)c3)ncn2)c1Cl` [Example 162, 3-(2,6-Dichloro-3,5-dimethoxy-phenyl)-1-[6-(3-{[(2-dimethylamino-ethyl)-methyl-amino]-methyl}-phenylamino)-pyrimidin-4-yl]-1-methyl-urea], the inhibition at 10 µM was 12 to 100% on Tek, 67 to 100% on KDR (Examples 1 to 169) and 27 to 100% at FGFR3 (K650E) (setting [1]).
For `COc1cc(OC)c(Cl)c(NC(=O)N(C)c2cc(Nc3ccc(N4CCN(C(C)C)CC4)cc3)ncn2)c1Cl` [Example 163, 3-(2,6-Dichloro-3,5-dimethoxy-phenyl)-1-{6-[4-(4-isopropyl-piperazin-1-yl)-phenylamino]-pyrimidin-4-yl}-1-methyl-urea] the same measures were 12 to 100%, 67 to 100% and 27 to 100%.
In the case of `COc1cc(OC)c(Cl)c(NC(=O)N(C)c2cc(Nc3ccc(OC4CCN(C)CC4)cc3)ncn2)c1Cl` [Example 165, 3-(2,6-Dichloro-3,5-dimethoxy-phenyl)-1-methyl-{6-[4-(1-methyl-piperidin-4-yloxy)-phenylamino]-pyrimidin-4-yl}-urea], the inhibition at 10 µM at Tek was 12 to 100%; at KDR (Examples 1 to 169), 67 to 100%; at FGFR3 (K650E) (setting [1]) it was 27 to 100%.
On to `CCN(C(=O)Nc1c(Cl)c(OC)cc(OC)c1Cl)c1cc(Nc2ccc(OC3CCN(C)CC3)cc2)ncn1` [Example 166, 3-(2,6-Dichloro-3,5-dimethoxy-phenyl)-1-ethyl-{6-[4-(1-methyl-piperidin-4-yloxy)-phenylamino]-pyrimidin-4-yl}-urea], for which the inhibition at 10 µM at Tek lay in the range of 12 to 100%; at KDR (Examples 1 to 169), 67 to 100%; at FGFR3 (K650E) (setting [1]), 27 to 100%.
The like results for `COc1cc(OC)c(Cl)c(NC(=O)N(C)c2cc(Nc3ccc(CN(C)C)c(C(F)(F)F)c3)ncn2)c1Cl` [Example 167, 3-(2,6-Dichloro-3,5-dimethoxy-phenyl)-1-[6-(4-dimethylaminomethyl-3-trifluoromethyl-phenylamino)-pyrimidin-4-yl]-1-methyl-urea] were, in that order, 12 to 100%, 67 to 100% and 27 to 100%.
For `CCN1CCN(Cc2ccc(Nc3cc(NC(=O)Nc4c(Cl)c(OC)cc(OC)c4Cl)ncn3)cc2C(F)(F)F)CC1` [Example 168, 1-(2,6-Dichloro-3,5-dimethoxy-phenyl)-3-{6-[4-(4-ethyl-piperazin-1-ylmethyl)-3-trifluoromethyl-phenylamino]-pyrimidin-4-yl}-urea] the same measures were 12 to 100%, 67 to 100% and 27 to 100%.
Regarding `CCN1CCN(Cc2ccc(Nc3cc(N(C)C(=O)Nc4c(Cl)c(OC)cc(OC)c4Cl)ncn3)cc2C(F)(F)F)CC1` [Example 169, 3-(2,6-Dichloro-3,5-dimethoxy-phenyl)-1-{6-[4-(4-ethyl-piperazin-1-ylmethyl)-3-trifluoromethyl-phenylamino]-pyrimidin-4-yl}-1-methyl-urea], the inhibition at 10 µM on Tek was in the range of 12 to 100%; at KDR (Examples 1 to 169) it was 67 to 100%; on FGFR3 (K650E) (setting [1]), 27 to 100%.
Regarding `CNc1cc(NC(=O)Nc2cc(NC(=O)c3cccc(C(F)(F)F)c3)ccc2C)ncn1` [Example 172, N-{4-Methyl-3-[3-(6-methylamino-pyrimidin-4-yl)-ureido]-phenyl}-3-trifluoromethyl-benzamide], the inhibition at 10 µM against c-Abl was 79 to 100%; at KDR (Examples 171 to 206) it was 87 to 100%; on FGFR3 (K650E) (setting [2]), 56 to 98%.
Consider `Cc1ccc(NC(=O)c2cccc(C(F)(F)F)c2)cc1NC(=O)Nc1cc(Nc2ccccc2)ncn1` [Example 173, N-{4-Methyl-3-[3-(6-phenylamino-pyrimidin-4-yl)-ureido]-phenyl}-3-trifluoromethyl-benzamide], for which the inhibition at 10 µM lay within 79 to 100% against c-Abl, 87 to 100% on KDR (Examples 171 to 206) and 56 to 98% on FGFR3 (K650E) (setting [2]).
The like results for `Cc1ccc(NC(=O)c2cccc(C(F)(F)F)c2)cc1NC(=O)Nc1cc(Nc2ccc(N3CCN(C)CC3)cc2)ncn1` [Example 174, N-[4-Methyl-3-(3-{6-[4-(4-methyl-piperazin-1-yl)-phenylamino]-pyrimidin-4-yl}-ureido)-phenyl]-3-trifluoromethyl-benzamide] were, in that order, 79 to 100%, 87 to 100% and 56 to 98%.
For `Cc1ccc(NC(=O)c2cccc(C(F)(F)F)c2)cc1NC(=O)Nc1cc(Nc2cccc(N3CCN(C)CC3)c2)ncn1` [Example 175, N-[4-Methyl-3-(3-{6-[3-(4-methyl-piperazin-1-yl)-phenylamino]-pyrimidin-4-yl}-ureido)-phenyl]-3-trifluoromethyl-benzamide] the same measures were 79 to 100%, 87 to 100% and 56 to 98%.
